Here are results for twelve molecules from ChEMBL document CHEMBL5614457, “New Directions in Antibacterial, Anticancer, and Gene Editing Therapies” (ACS Med Chem Lett, 2024).

The target of the assay is Protein cereblon/B-cell lymphoma 6 protein (Homo sapiens) (UniProt Q96SW2+P41182). Put plainly: PROTAC activity at CRBN/N-terminal-HibiT tagged BCL6 in human HT-1080 cells transfected with pLV-UBC-N-HiBiT- BCL6-PGK-puro assessed as degradation of protein by measuring ratio of trough concentration of protein in cell compared to the concentration of protein before the cell contact with compound (Ymin) incubated for 5 hrs by luminescence based NANO-Glo HIBiT lytic detection assay.
`Cn1nc(C2CCC(=O)NC2=O)c2cccc(C3CCN(CC4CCN(c5ncc(F)c(Nc6ccc7c(c6)c6c(c(=O)n7C)OCC(F)(F)[C@H](C7CC7)N6)n5)CC4)CC3)c21` (some centres not stated): the Activity is below 30%.

Regarding `Cn1c(=O)c2c(c3cc(Nc4nc(N5CCN(CC6CCN(c7cccc8c7C(=O)N(C7CCC(=O)NC7=O)C8=O)CC6)CC5)ncc4Cl)ccc31)N[C@@H](C1CC1)C(F)(F)CO2` (some centres not stated), the Activity was below 30%.

Regarding `Cn1nc(C2CCC(=O)NC2=O)c2cccc(N3CCC(CN4CCN(c5ncc(Cl)c(Nc6ccc7c(c6)c6c(c(=O)n7C)OCC(F)(F)[C@H](C7CC7)N6)n5)CC4)CC3)c21` (some centres not stated), the Activity was below 30%. On to `C[C@@H](C1CCN(c2cccc3c(C4CCC(=O)NC4=O)nn(C)c23)CC1)N1CCN(c2ncc(Cl)c(Nc3ccc4c(c3)c3c(c(=O)n4C)OCC(F)(F)[C@H](C4CC4)N3)n2)CC1` (some centres not stated), for which the Activity was below 30%. Take `Cn1nc(C2CCC(=O)NC2=O)c2ccc(N3CCC(CN4CCN(c5ncc(F)c(Nc6ccc7c(c6)c6c(c(=O)n7C)OCC(F)(F)[C@H](C7CC7)N6)n5)CC4)CC3)cc21` (some centres not stated): the Activity turned out to be 30%.

Turning to `Cn1nc(C2CCC(=O)NC2=O)c2cccc(N3CCC(CN4CCN(c5ncc(Br)c(Nc6ccc7c(c6)c6c(c(=O)n7C)OCC(F)(F)[C@H](C7CC7)N6)n5)CC4)CC3)c21` (some centres not stated), the Activity was below 30%. In the case of `Cn1nc(C2CCC(=O)NC2=O)c2cccc(N3CCC(OC4CCN(c5ncc(Cl)c(Nc6ccc7c(c6)c6c(c(=O)n7C)OCC(F)(F)[C@H](C7CC7)N6)n5)CC4)CC3)c21` (some centres not stated), the Activity is below 30%. Regarding `Cn1nc(C2CCC(=O)NC2=O)c2cccc(N3CCC(CN4CCN(c5ncc(F)c(Nc6ccc7c(c6)c6c(c(=O)n7C)OCC(F)(F)[C@H](C7CC7)N6)n5)CC4)CC3)c21` (some centres not stated), the Activity is below 30%.

For `Cn1nc(C2CCC(=O)NC2=O)c2cccc(N3CCN(CC4CCN(c5ncc(Cl)c(Nc6ccc7c(c6)c6c(c(=O)n7C)OCC(F)(F)[C@H](C7CC7)N6)n5)CC4)CC3)c21` (some centres not stated), the Activity was below 30%.

As to `Cn1nc(C2CCC(=O)NC2=O)c2ccc(N3CCC(CN4CCN(c5cc(Nc6ccc7c(c6)c6c(c(=O)n7C)OCC(F)(F)[C@H](C7CC7)N6)c(Cl)cn5)CC4)CC3)cc21` (some centres not stated), the Activity is below 30%. Regarding `Cn1nc(C2CCC(=O)NC2=O)c2cccc(C3CCN(CC4CCN(c5ncc(Cl)c(Nc6ccc7c(c6)c6c(c(=O)n7C)OCC(F)(F)[C@H](C7CC7)N6)n5)CC4)CC3)c21` (some centres not stated), the Activity was below 30%. `Cn1nc(C2CCC(=O)NC2=O)c2cccc(N3CCC(CN4CCN(c5cc(Nc6ccc7c(c6)c6c(c(=O)n7C)OCC(F)(F)[C@H](C7CC7)N6)c(Cl)cn5)CC4)CC3)c21` (some centres not stated): the Activity is below 30%.
